Where two headings read alike, the source gives them in different places.
Columns and labels:
clinical = details: both, human, plasma, po, 6 milligram
[1] = calculated from geometric LS means, single 6 milligram dose
[2] = plasma, single 6 milligram doxepin tablet, fasted (N = 15)
[3] = plasma, single 6 milligram doxepin tablet, fed (N = 16)
[4] = ratio of geometric LS means, 6 milligram doxepin tablet
[5] = single 6 milligram doxepin tablet, fasted (N 15)
[6] = single 6 milligram doxepin tablet, fed (N 16)
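Also: healthy young adult men and women, dosed in the morning. Doxepin in plasma by validated HPLC-MS/MS (LLOQ 0.05 ng/mL), parameters by noncompartmental analysis on actual elapsed time after dosing.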

Cmax (clinical): 0.854 ng/mL
Tmax (clinical): 3 h
time postdose at which detectable plasma levels were first observed (both fed and fasted states (six and five subjects, respectively)): 30 min
time postdose up to which plasma doxepin concentrations remained quantifiable (both treatments (fed and fasted), lower limit of quantification 0.05 ng/mL): up to 48 hours
AUC0-∞, Effect of Food (% of fasted state) [1]: 141 % of fasted state
Cmax, Effect of Food (% of fasted state) [1]: 115 % of fasted state
Tmax, Effect of Food (% of fasted state) (median Tmax, single 6 milligram dose): 200 % of fasted state
AUC0-Tlast, arithmetic mean [2]: 12.6 ng·h/mL
AUC0-∞, arithmetic mean [2]: 14.1 ng·h/mL
t1/2, arithmetic mean [2]: 14.4 h
λz, arithmetic mean [2]: 0.0623 h⁻¹
Cmax, arithmetic mean [3]: 0.951 ng/mL
Tmax, median [3]: 6.0 h
λz, arithmetic mean [3]: 0.0445 h⁻¹
AUC0-Tlast, Pairwise Comparison Ratio Fed/Fasted [4]: 145.6%
AUC0-∞, Pairwise Comparison Ratio Fed/Fasted [4]: 141.3%
Cmax, Pairwise Comparison Ratio Fed/Fasted [4]: 114.6%
increase in AUC0-Tlast under fed conditions compared to fasted conditions (single 6 milligram dose): 46%
mean CL/F lower in the fed state compared to the fasted state (single 6 milligram dose): 43%
mean Vd/F lower in the fed state compared to the fasted state (single 6 milligram dose): 14%
time postdose by which all subjects had detectable concentrations (single 6 milligram dose): ≤ 90 min
time postdose at which mean plasma concentrations reach Cmax (single 6 milligram dose, fasted state (Treatment A)): 3.0 h
time postdose at which mean plasma concentrations reach Cmax (single 6 milligram dose, fed state (Treatment B)): 6.0 h
AUC0-Tlast, Geometric LS Mean [5]: 9.194 ng·h/mL
AUC0-∞, Geometric LS Mean [5]: 10.72 ng·h/mL
Cmax, Geometric LS Mean [5]: 0.717 ng/mL
CL/F, arithmetic mean (single 6 milligram doxepin tablet, fasted (N = 15)): 837 L/h
AUC0-Tlast, Geometric LS Mean [6]: 13.39 ng·h/mL
AUC0-∞, Geometric LS Mean [6]: 15.14 ng·h/mL
Cmax, Geometric LS Mean [6]: 0.822 ng/mL
CL/F, arithmetic mean (single 6 milligram doxepin tablet, fed (N = 16)): 477 L/h
SMILES: CN(C)CCC=C1c2ccccc2COc2ccccc21 [doxepin]

From patent publication US9572814B2, “Methods of improving the pharmacokinetics of doxepin” (Pernix Sleep, Inc., priority 2006, dated 2017)
